Results: patent US20130072523A1, “ANALOGUES FOR THE TREATMENT OR PREVENTION OF FLAVIVIRUS INFECTIONS” (VERTEX PHARMACEUTICALS INCORPORATED, priority 2009, published 2013)

Test system: HCV 1b genotype
Assay: Cell-based luciferase reporter HCV (Ib) RNA replication assay (Huh-ET replicon cells)
Conditions: Hepatitis C virus, 96 h; HCV 1b genotype replicon, 4 days incubation, luciferase readout
Excerpt: Cell-Based Luciferase Reporter HCV (Ib) RNA Replication Assay Cell Culture
Replicon cell lines Huh-5.2 are derived from the Huh-7 hepatocarcinoma cell line are maintained in culture as generally described in Krieger, N; Lohmann, V; Bartenschlager, R. Enhancement of hepatitis C virus RNA replication by cell culture-adaptive mutations. J. Virol. 2001, 75, 4614-4624. The Huh-5.2 cells contain the highly cell culture-adapted replicon I389 Luc-ubi-neo/NS3-375.1 construct that carries, in addition to the neomycin gene, an integrated copy to the firefly luciferase gene (Krieger, N; Lohmann, V; Bartenschlager, R. Enhancement of hepatitis C virus RNA replication by cell culture-adaptive mutations. J. Virol. 2001, 75, 4614-4624). This cell line allows measurement of HCV RNA replication and translation by measuring luciferase activity. It has been previously shown that the luciferase activity tightly follows the replicon RNA level in these cells (Krieger, N; Lohmann, V; Bartenschlager, R. Enhancement of hepatitis C virus RNA replication by cell culture-adaptive mutations. J. Virol. 2001, 75, 4614-4624). The Huh-ET cell line has the same features as those mentioned for Huh-5.2 cell line, except that ET cells are more robust and contain an adaptative mutation in the HCV NS4B gene instead of NS5A. Both cell lines are maintained in cultures at a sub-confluent level (<85%) as the level of replicon RNA is highest in actively proliferating cells. The culture media used for cell passaging consist of DMEM (Gibco BRL Laboratories, Mississauga, ON, Canada) supplemented with 10% foetal bovine serum with 1% penicilin/streptomycin, 1% glutamine, 1% sodium pyruvate, 1% non-essential amino acids, and 180 μg/ml of G418 final concentration. Cells are incubated at 37° C., in an atmosphere of 5% CO2 and passaged twice a week to maintain sub-confluence.
Approximately 3000 viable Huh-ET cells (100 μl) are plated per well in a white opaque 96-well microtiter plate. The cell culture media used for the assay is the same as described above except that it contains no G418 and no phenol red. After an incubation period of 3-4 hours at 37° C. in a 5% CO2 incubator, compounds (100 μl) are added at various concentrations. Cells are then further incubated for 4 days at 37° C. in a 5% CO2 incubator. Thereafter, the culture media is removed and cells are lysed by the addition of 95 μL of the luciferase buffer (luciferin substrate in buffered detergent). Cell lysates are incubated at room temperature and protected from direct light for at least 10 minutes. Plates are read for luciferase counts using a luminometer (Wallac MicroBeta Trilux, Perkin Elmer™, MA, USA).
The 50% inhibitory concentrations (IC50s) for inhibitory effect are determined from dose response curves using eleven concentrations per compound in duplicate. Curves are fitted to data points using nonlinear regression analysis, and IC50s are interpolated from the resulting curve using GraphPad Prism software, version 2.0 (GraphPad Software Inc., San Diego, Calif., USA).
EC50 ranges are presented in micromolar as follows: μM+++<=0.005<++<=5.0<+.

Row | Compound | IC50
1 | COC(=O)N[C@H](C(=O)N1C[C@@H](C)C[C@H]1c1ncc(C#Cc2ccc(C#Cc3cnc([C@@H]4C[C@H](C)CN4C(=O)[C@@H](NC(=O)OC)C(C)C)[nH]3)c(F)c2)[nH]1)C(C)C [Compound 36] | ≤ 5 nM
2 | COC(=O)N[C@H](C(=O)N1CCC[C@H]1c1ncc(C#Cc2ccc(C#Cc3cnc([C@@H]4CCCN4C(=O)[C@@H](NC(=O)OC)C(C)C)[nH]3)c3c2OCO3)[nH]1)C(C)C [Compound 2] | ≤ 5 nM
3 | COC(=O)N[C@H](C(=O)N1C[C@@H](C)C[C@H]1c1ncc(-c2ccc(-c3[nH]c([C@@H]4C[C@H](C)CN4C(=O)[C@@H](NC(=O)OC)C(C)C)nc3-c3cc4sccc4s3)cc2)[nH]1)C(C)C [Compound 58] | ≤ 5 nM
4 | COC(=O)N[C@H](C(=O)N1C[C@@H](C)C[C@H]1c1nc(C(F)(F)F)c(C#Cc2ccc(C#Cc3[nH]c([C@@H]4C[C@H](C)CN4C(=O)[C@@H](NC(=O)OC)C(C)C)nc3C(F)(F)F)cc2)[nH]1)C(C)C [Compound 48] | ≤ 5 nM
5 | CC[C@H]1C[C@@H](c2ncc(C#Cc3ccc(C#Cc4cnc([C@@H]5C[C@H](CC)CN5C(=O)[C@@H](NC(=O)OC)C(C)C)[nH]4)cc3)[nH]2)N(C(=O)[C@@H](NC(=O)OC)C(C)C)C1 [Compound 41] | ≤ 5 nM
6 | COC(=O)N[C@H](C(=O)N1CC(C)(C)C[C@H]1c1ncc(C#Cc2ccc(C#Cc3cnc([C@@H]4CC(C)(C)CN4C(=O)[C@@H](NC(=O)OC)C(C)C)[nH]3)cc2)[nH]1)C(C)C [Example 43] | ≤ 5 nM
7 | COC(=O)N[C@H](C(=O)N1C[C@@H](C)C[C@H]1c1ncc(C#Cc2ccc(C#Cc3cnc([C@@H]4C[C@H](C)CN4C(=O)[C@@H](NC(=O)OC)C(C)C)[nH]3)c3nsnc23)[nH]1)C(C)C [Compound 40] | ≤ 5 nM
8 | COC(=O)N[C@H](C(=O)N1CCC[C@H]1c1nc(C#Cc2cc3sc(C#Cc4c[nH]c([C@@H]5CCCN5C(=O)[C@@H](NC(=O)OC)C(C)C)n4)cc3s2)c[nH]1)C(C)C [Compound 14] | ≤ 5 nM
9 | COC(=O)N[C@H](C(=O)N1C[C@@H](C)C[C@H]1c1nc(C#Cc2ccc(C#Cc3c[nH]c([C@@H]4C[C@H](C)CN4C(=O)[C@@H](NC(=O)OC)C(C)C)n3)c(C(=O)OC)c2)c[nH]1)C(C)C [Compound 57] | ≤ 5 nM
10 | COC(=O)N[C@H](C(=O)N1C[C@@H](C)C[C@H]1c1nc(CCc2ccc(CCc3c[nH]c([C@@H]4C[C@H](C)CN4C(=O)[C@@H](NC(=O)OC)C(C)C)n3)cc2)c[nH]1)C(C)C [Compound 17] | 5 to 5000 nM
11 | COC(=O)N[C@H](C(=O)N1C[C@@H](C)C[C@H]1c1nc(C)c(-c2cc3sc(-c4[nH]c([C@@H]5C[C@H](C)CN5C(=O)[C@@H](NC(=O)OC)C(C)C)nc4C)cc3s2)[nH]1)C(C)C [Compound 47] | ≤ 5 nM
12 | COC(=O)N[C@H](C(=O)N1C[C@@H](C)C[C@H]1c1nc(I)c(C#Cc2ccc(C#Cc3[nH]c([C@@H]4C[C@H](C)CN4C(=O)[C@@H](NC(=O)OC)C(C)C)nc3I)cc2)[nH]1)C(C)C [Compound 21] | ≤ 5 nM
13 | COC(=O)N[C@H](C(=O)N1C[C@H](C)C[C@H]1c1ncc(C#Cc2ccc(C#Cc3cnc([C@@H]4C[C@H](C)CN4C(=O)[C@@H](NC(=O)OC)C(C)C)[nH]3)cc2)[nH]1)C(C)C [Compound 38] | ≤ 5 nM
14 | COC(=O)N[C@H](C(=O)N1C[C@@H](C)C[C@H]1c1nc(C)c(C#Cc2cc3sc(C#Cc4[nH]c([C@@H]5C[C@H](C)CN5C(=O)[C@@H](NC(=O)OC)C(C)C)nc4C)cc3s2)[nH]1)C(C)C [Compound 66] | ≤ 5 nM
15 | COC(=O)N[C@H](C(=O)N1C[C@@H](C)C[C@H]1c1ncc(C#Cc2cc3sc(C#Cc4cnc([C@@H]5C[C@H](C)CN5C(=O)[C@@H](NC(=O)OC)C(C)C)[nH]4)cc3s2)[nH]1)C(C)C [Compound 10] | ≤ 5 nM
16 | COC(=O)N[C@H](C(=O)N1C[C@@H](C)C[C@@H]1c1ncc(C#Cc2ccc(C#Cc3cnc([C@@H]4C[C@H](C)CN4C(=O)[C@@H](NC(=O)OC)C(C)C)[nH]3)cc2)[nH]1)C(C)C [Compound 52] | 5 to 5000 nM

Row | Compound | IC50
17 | [2H]C([2H])([2H])C([2H])(C([2H])([2H])[2H])[C@@]([2H])(NC(=O)OC)C(=O)N1C[C@@H](C)C[C@H]1c1ncc(C#Cc2ccc(C#Cc3cnc([C@@H]4C[C@H](C)CN4C(=O)[C@@H](NC(=O)OC)C(C)C)[nH]3)cc2)[nH]1 [Compound 44] | ≤ 5 nM
18 | C[C@H]1C[C@@H](c2ncc(-c3ccc(-c4ccc(-c5cnc([C@@H]6C[C@H](C)CN6C(=O)OC(C)(C)C)[nH]5)s4)cc3)[nH]2)N(C(=O)OC(C)(C)C)C1 [Compound 65] | 5 to 5000 nM
19 | COC(=O)N[C@H](C(=O)N1C[C@@H](C)C[C@H]1c1nc(C#Cc2ccc(C#Cc3c[nH]c([C@@H]4C[C@H](C)CN4C(=O)[C@@H](NC(=O)OC)C(C)C)n3)s2)c[nH]1)C(C)C [Compound 60] | ≤ 5 nM
20 | COC(=O)N[C@H](C(=O)N1C[C@@H](C)C[C@H]1c1nc(C#Cc2ccc(C#Cc3c[nH]c([C@@H]4C[C@H](C)CN4C(=O)[C@@H](NC(=O)OC)C(C)C)n3)c(C)c2)c[nH]1)C(C)C [Compound 16] | ≤ 5 nM
21 | COC(=O)N[C@H](C(=O)N1C[C@@H](C)C[C@H]1c1nc(-c2ccc3cc(-c4c[nH]c([C@@H]5C[C@H](C)CN5C(=O)[C@@H](NC(=O)OC)C(C)C)n4)ccc3c2)c[nH]1)C(C)C [Compound 49] | ≤ 5 nM
22 | COC(=O)N[C@H](C(=O)N1C[C@@H](C)C[C@H]1c1ncc(C#Cc2ccc(C#Cc3cnc([C@@H]4C[C@H](CO)CN4C(=O)[C@@H](NC(=O)OC)C(C)C)[nH]3)cc2)[nH]1)C(C)C [Compound 64] | ≤ 5 nM
23 | COC(=O)N[C@H](C(=O)N[C@H](C(=O)N1C[C@@H](C)C[C@H]1c1ncc(C#Cc2ccc(C#Cc3cnc([C@@H]4C[C@H](C)CN4C(=O)[C@@H](NC(=O)OC)C(C)C)[nH]3)cc2)[nH]1)C(C)C)C(C)C [Compound 46] | ≤ 5 nM
24 | COC(=O)N[C@H](C(=O)N1C[C@@H](C)C[C@H]1c1nc(C#Cc2ccc(C#Cc3c[nH]c([C@@H]4C[C@H](C)CN4C(=O)[C@@H](NC(=O)OC)C(C)C)n3)c(C#N)c2)c[nH]1)C(C)C [Compound 62] | ≤ 5 nM
25 | COC(=O)N[C@H](C(=O)N1C[C@@H](C)C[C@H]1c1ncc(C#Cc2ccc(C#Cc3cnc([C@@H]4C[C@H](C)CN4)[nH]3)cc2)[nH]1)C(C)C [Compound 39] | 5 to 5000 nM
26 | COC(=O)N[C@H](C(=O)N1CCC[C@H]1c1nc(-c2cc3sc(-c4c[nH]c([C@@H]5CCCN5C(=O)[C@@H](NC(=O)OC)C(C)C)n4)cc3s2)c[nH]1)C(C)C [Example 25, Methyl N-[(1S)-1-[(2S)-2-[4-[2-[2-[(2S)-1-[(2S)-2-(methoxycarbonylamino)-3-methyl-butanoyl]pyrrolidin-2-yl]-1H-imidazol-4-yl]thieno[3,2-b]thiophen-5-yl]-1H-imidazol-2-yl]pyrrolidine-1-carbonyl]-2-methyl-propyl]carbamate] | ≤ 5 nM
27 | COC(=O)N[C@H](C(=O)N1C[C@@H](C)C[C@H]1c1nc(C)c(C#Cc2ccc3cc(C#Cc4[nH]c([C@@H]5C[C@H](C)CN5C(=O)[C@@H](NC(=O)OC)C(C)C)nc4C)ccc3c2)[nH]1)C(C)C [Compound 37] | ≤ 5 nM
28 | COC(=O)N[C@H](C(=O)N1C[C@@H](C)C[C@H]1c1ncc(C#Cc2ccc(C#Cc3cnc([C@@H]4C[C@H](C)CN4C(=O)[C@H](NC(=O)OC)C(C)C)[nH]3)cc2)[nH]1)C(C)C [Compound 33] | ≤ 5 nM
29 | COC(=O)N[C@H](C(=O)N1C[C@@H](C)C[C@H]1c1nc(CO)c(C#Cc2ccc(C#Cc3[nH]c([C@@H]4C[C@H](C)CN4C(=O)[C@@H](NC(=O)OC)C(C)C)nc3CO)cc2)[nH]1)C(C)C [Compound 59] | 5 to 5000 nM
30 | COC(=O)N[C@H](C(=O)N1C[C@@H](C)C[C@H]1c1ncc(C#Cc2ccc(C#Cc3cnc([C@@H]4C[C@H](C)CN4C(=O)[C@H](C(C)C)N(C)C(=O)OC)[nH]3)cc2)[nH]1)C(C)C [Compound 12] | ≤ 5 nM
31 | COC(=O)N[C@H](C(=O)N1C[C@@H](C)C[C@H]1c1nc(C#CC#Cc2c[nH]c([C@@H]3C[C@H](C)CN3C(=O)[C@@H](NC(=O)OC)C(C)C)n2)c[nH]1)C(C)C [Compound 53] | ≤ 5 nM
32 | [2H]c1c([2H])c(C#Cc2cnc([C@@H]3C[C@H](C)CN3C(=O)[C@@H](NC(=O)OC)C(C)C)[nH]2)c([2H])c([2H])c1C#Cc1cnc([C@@H]2C[C@H](C)CN2C(=O)[C@@H](NC(=O)OC)C(C)C)[nH]1 [Compound 5] | ≤ 5 nM
